Measurements: patent US11603395B2, “Antitumor peptide and use thereof” (TOAGOSEI CO., LTD, priority 2019, dated 2023)
Where two headings read alike, the source gives them in different places. Where no end group is shown, it is not given here.

Legend:
[1] = test system: human melanoma (A2058) cell lines; test: Antitumor index from viability of A2058 cells vs MCF-12F normal cells (Cell Counting Kit-8, WST-8); assay type: cell-based; conditions: 48 hours; for Antitumor activity / proliferation of A2058 cells (in words): 6.25-25 μM; for Antitumor index: A2058 viability A / MCF-12F viability B, n=6 wells
Description: Specifically, for example, a test using a conventionally known cell proliferation measurement reagent using a tetrazolium salt is performed so that the antitumor index can be calculated. In a preferable aspect, first, the antitumor composition disclosed here is added to a culture solution containing tumor cells, culture is performed for a predetermined time (for example, 24 hours or longer and 72 hours or shorter), and the viability A (%) of tumor cells is calculated. In addition, the viability B (%) of normal cells cultured under the same conditions is calculated. Then, the antitumor index based on the viabilities of tumor cells and normal cells calculated in this manner can be evaluated according to, for example, the following Formula (1):
Antitumor index based on viabilities of tumor cells and normal cells=A/B (1).
The antitumor activity of the peptides of Samples 1 to 4 synthesized in the above Test Example 1 was evaluated using human-derived cultured tumor cells as targets.
Specifically, currently commercially available human melanoma (A2058) cell lines were used as test tumor cells. In addition, a normal human mammary epithelial cell culture line (MCF-12F) was used for comparison. Here, culture solutions of respective cells are as follows.
A2058 cells and MCF-12F cells were cultured and prepared so that the number of cells per well in a 96-hole (well) plate was about 5×10^3. An amount of the culture medium in this case was 100 μL per well.
Next, the 96-hole (well) plate was placed in a CO2 incubator and pre-incubated under conditions of 37° C. and 5% CO2 for about 1 day (21 hours to 24 hours).
(§1) Then, peptide-containing test culture mediums for each concentration were prepared so that the concentrations of the sample peptides to be evaluated were 6.25 μM, 12.5 μM, and 25 μM and supplied to wells (that is, wells after the pre-incubation) in which 90 μL of cells to be evaluated were cultured in each well. Then, the 96-hole (well) plate was returned to the CO2 incubator and incubated under conditions of 37° C. and 5% CO2 for 48 hours.
Here, the number of test wells (n) at peptide concentrations in peptide addition test groups was set to 6. Therefore, the value of the result shown in the following table is an average value of the results obtained in 6 test wells.
(§2) After the incubation for 48 hours was completed, the culture medium in each well was substituted with 100 μL of a fresh culture medium containing no peptide, and additionally, 10 μL of a cell proliferation measurement reagent “Cell Counting Kit-8” (product, commercially available from Dojindo Laboratories) containing a “water-soluble tetrazolium salt (WST-8)” as a coloring reagent was added to each well. Then, the 96-well plate was returned to the CO2 incubator and incubated under conditions of 37° C., and 5% CO2 for 1.5 hours to 2 hours.
(§3) After the incubation was completed, the cell culture solution to which the reagent was added was collected and the cell viability (%) was calculated according to a colorimetric method in which an absorbance at a wavelength of 450 nm (value corrected by the absorbance at a wavelength of 620 nm: A450-A620) was measured based on the reduction of the tetrazolium salt. Specifically, a measured value (measurement absorbance) of a comparative test group in which the above incubation was performed for 48 hours in a culture medium containing no sample peptide was set as a cell viability of 100%. Then, the viability A (%) of A2058 cells and the viability B (%) of MCF-12F cells were calculated. In addition, an antitumor index was calculated based on the viability of A2058 cells and MCF-12F cells using the above Formula (1), and thus the antitumor activity of the sample peptide with respect to A2058 cells was evaluated.

[2] = test system: human kidney cancer cell lines (CAKI2); test: Antitumor index from viability of CAKI2 cells vs MCF-12F normal cells (Cell Counting Kit-8, WST-8); assay type: cell-based; conditions: 48 hours; for Proliferation of CAKI2 cells (in words): 6.25-25 μM; for Antitumor index: CAKI2 viability A / MCF-12F viability B
Description: as §1, §2, §3
The antitumor activity of Sample 3 and Sample 4 in the above Test Example 1 was evaluated using different tumor cells as targets.
Specifically, currently commercially available human kidney cancer cell lines (CAKI2) were used as test tumor cells. In addition, the above MCF-12F cells were used for comparison.
a McCoy's 5A culture medium (product, commercially available from Gibco) containing 2 mM of L-glutamine, 3,000 mg/L of glucose, 100 unit/mL of penicillin, 100 μg/mL of streptomycin, and 10% fetal bovine serum (FBS).
Details of the test were as those described in Test Example 2. The antitumor index based on the viabilities of CAKI2 cells and MCF-12F cells calculated using the above Formula (1) is shown in Table 3.

[3] = test system: human melanoma cell line (SK-MEL5); test: Antitumor index from viability of SK-MEL5 cells vs MCF-12F normal cells (Cell Counting Kit-8, WST-8); assay type: cell-based; conditions: 6.25 μM, 48 hours
[4] = test system: A2058 cells (tumor cells); assay type: cell-based, human; conditions: 48 hours; for Cell viability (%): human
Description: Then, peptide-containing test culture mediums for each concentration were prepared so that the concentrations of the sample peptides to be evaluated were 6.25 μM, 12.5 μM, and 25 μM and supplied to wells (that is, wells after the pre-incubation) in which 90 μL of cells to be evaluated were cultured in each well. Then, the 96-hole (well) plate was returned to the CO2 incubator and incubated under conditions of 37° C. and 5% CO2 for 48 hours. After the incubation for 48 hours was completed, the culture medium in each well was substituted with 100 μL of a fresh culture medium containing no peptide, and additionally, 10 μL of a cell proliferation measurement reagent “Cell Counting Kit-8” (product, commercially available from Dojindo Laboratories) containing a “water-soluble tetrazolium salt (WST-8)” as a coloring reagent was added to each well. Then, the 96-well plate was returned to the CO2 incubator and incubated under conditions of 37° C., and 5% CO2 for 1.5 hours to 2 hours. After the incubation was completed, the cell culture solution to which the reagent was added was collected and the cell viability (%) was calculated according to a colorimetric method in which an absorbance at a wavelength of 450 nm (value corrected by the absorbance at a wavelength of 620 nm: A450-A620) was measured based on the reduction of the tetrazolium salt. Specifically, a measured value (measurement absorbance) of a comparative test group in which the above incubation was performed for 48 hours in a culture medium containing no sample peptide was set as a cell viability of 100%. Then, the viability A (%) of A2058 cells and the viability B (%) of MCF-12F cells were calculated. In addition, an antitumor index was calculated based on the viability of A2058 cells and MCF-12F cells using the above Formula (1), and thus the antitumor activity of the sample peptide with respect to A2058 cells was evaluated. Using tumor cells as targets, the antitumor activity was evaluated using a synthetic peptide having a sequence completely different from those of Samples 1 to 4. Specifically, the viability (%) of A2058 cells (tumor cells) when Sample 5 was treated was evaluated. Details of the test were as those described in Test Example 2. Here, the viability of A2058 cells cultured in a culture medium containing no Sample 5 for the same time was set as 100%, and the viability (%) of A2058 cells cultured under the treatment of Sample 5 was calculated.

Row | Substance | Antitumor activity / proliferation of A2058 cells (in words) [1] | Antitumor index ([1]; peptide 6.25 μM) | Antitumor index ([1]; peptide 12.5 μM) | Antitumor index ([1]; peptide 25 μM) | Proliferation of CAKI2 cells (in words) [2] | Antitumor index ([2]; peptide 6.25 μM) | Antitumor index ([2]; peptide 12.5 μM) | Antitumor index ([2]; peptide 25 μM) | Proliferation of SK-MEL5 cells (in words) [3] | Antitumor activity (in words) ([4]; A2058 cells, 6.25-25 μM) | Cell viability (%) ([4]; 6.25 μM) | Cell viability (%) ([4]; 12.5 μM) | Cell viability (%) ([4]; 25 μM)
1 | IAAVIFGFLATAAYAVNTFLAKKRTLRKNDRKKR (IAAVIFGFLATAAYAVNTFLAKKRTLRKNDRKKR-NH2) [Sample 4] | stronger antitumor activity | 0.84 | 0.65 | 0.12 | significantly reduced proliferation | 1.41 | 0.83 | 0.22 | – | – | – | – | –
2 | LVNTGLSAFLFFIASIVLAALKKRTLRKNDRKKR (LVNTGLSAFLFFIASIVLAALKKRTLRKNDRKKR-NH2) [Sample 3] | stronger antitumor activity | – | – | – | significantly reduced proliferation | 0.77 | 0.1 | – | significantly reduced proliferation | – | – | – | –
3 | MGSNLSPQLCLMPFILGLLSGGVTTKKRTLRKNDRKKR-NH2 [Sample 5] | – | – | – | – | – | – | – | – | – | no antitumor activity | 110.7 | 109.9 | 113.6
4 | VAQVILALIAFICIETIMACSKKRTLRKNDRKKR (VAQVILALIAFICIETIMACSKKRTLRKNDRKKR-NH2; cysteine pairing not given here) [Sample 1] | – | 1.17 | 0.71 | 0.74 | – | – | – | – | – | – | – | – | –
5 | YFFEFVSCSAFVVTGVLLIMFKKRTLRKNDRKKR [Sample 2] | – | 0.79 | 0.61 | 0.52 | – | – | – | – | – | – | – | – | –
